The CheMixHub viscosity set
± gives the uncertainty stated by the source.

Assay: xn = mol fraction of the nth substance listed

CS(C)=O + OCCO
viscosity [mPa·s]
Details | 308.15 K | 313.15 K | 318.15 K | 323.15 K
100 kPa, x1 = 0.105 | – | 7.61 ± 0.31 | 6.51 ± 0.26 | 5.63 ± 0.23
100 kPa, x1 = 0.1987 | – | 6.39 ± 0.26 | 5.54 ± 0.23 | 4.82 ± 0.2
100 kPa, x1 = 0.2971 | – | 5.32 ± 0.22 | 4.51 ± 0.18 | 4.09 ± 0.17
100 kPa, x1 = 0.3911 | – | 4.45 ± 0.18 | 3.86 ± 0.16 | 3.48 ± 0.14
100 kPa, x1 = 0.5099 | – | 3.56 ± 0.14 | 3.02 ± 0.12 | 2.84 ± 0.12
100 kPa, x1 = 0.5932 | – | 3.07 ± 0.12 | 2.72 ± 0.11 | 2.48 ± 0.1
100 kPa, x1 = 0.702 | – | 2.61 ± 0.11 | 2.45 ± 0.1 | 2.13 ± 0.09
100 kPa, x1 = 0.7931 | – | 2.32 ± 0.09 | 2.24 ± 0.09 | 1.91 ± 0.08
100 kPa, x1 = 0.9003 | – | 2 ± 0.08 | 1.92 ± 0.08 | 1.67 ± 0.07
101 kPa, x2 = 0.0621 | – | 1.8 ± 0.07 | 1.63 ± 0.07 | 1.5 ± 0.06
101 kPa, x2 = 0.1227 | – | 2.24 ± 0.09 | 2.02 ± 0.08 | 1.84 ± 0.08
101 kPa, x2 = 0.1819 | – | 2.8 ± 0.12 | 2.51 ± 0.1 | 2.27 ± 0.09
101 kPa, x2 = 0.2394 | – | 3.49 ± 0.14 | 3.06 ± 0.13 | 2.73 ± 0.11
101 kPa, x2 = 0.2958 | – | 4.19 ± 0.17 | 3.56 ± 0.15 | 3.14 ± 0.13
101 kPa, x2 = 0.3504 | – | 4.83 ± 0.2 | 4.12 ± 0.17 | –
101 kPa, x2 = 0.404 | – | 5.48 ± 0.23 | 4.63 ± 0.19 | –
101 kPa, x2 = 0.4562 | 7.13 ± 0.29 | 6.01 ± 0.25 | 5.11 ± 0.21 | –
101 kPa, x2 = 0.5076 | 7.73 ± 0.32 | 6.52 ± 0.27 | 5.52 ± 0.23 | –
101 kPa, x2 = 0.5568 | 8.27 ± 0.34 | 6.95 ± 0.28 | 5.88 ± 0.24 | –
101 kPa, x2 = 0.6061 | 8.72 ± 0.36 | 7.33 ± 0.3 | 6.2 ± 0.25 | –
101 kPa, x2 = 0.6537 | 9.12 ± 0.37 | 7.65 ± 0.31 | 6.49 ± 0.27 | –
101 kPa, x2 = 0.7004 | 9.44 ± 0.38 | 7.94 ± 0.32 | 6.72 ± 0.27 | –
101 kPa, x2 = 0.7461 | 9.75 ± 0.4 | 8.22 ± 0.33 | 6.93 ± 0.28 | –
101 kPa, x2 = 0.7906 | 9.99 ± 0.41 | 8.48 ± 0.35 | 7.15 ± 0.29 | –
101 kPa, x2 = 0.8342 | 10.2 ± 0.4 | 8.71 ± 0.35 | 7.33 ± 0.3 | –
101 kPa, x2 = 0.8769 | 10.5 ± 0.4 | 8.95 ± 0.36 | 7.53 ± 0.31 | –
101 kPa, x2 = 0.9189 | 10.9 ± 0.4 | 9.2 ± 0.37 | 7.71 ± 0.31 | –
101 kPa, x2 = 0.9599 | 11.1 ± 0.5 | 9.41 ± 0.38 | 7.9 ± 0.32 | –
